# Test: photoluminescence quantum yield (fraction); solvent given as SMILES
compound,measurement,setting,value
CCCCCCCCN1c2ccc(C#Cc3cc(C(F)(F)F)cc(C(F)(F)F)c3)cc2Sc2cc(C=O)ccc21,photoluminescence quantum yield,in C1CCOC1,0.53
same,photoluminescence quantum yield,in CC#N,0.53
same,photoluminescence quantum yield,in CCCCCC,0.6
same,photoluminescence quantum yield,in CO,0.11
same,photoluminescence quantum yield,in CS(C)=O,0.77
same,photoluminescence quantum yield,in Cc1ccccc1,0.67
same,photoluminescence quantum yield,in ClC(Cl)Cl,0.63
O=Cc1cc(O)ccc1O,photoluminescence quantum yield,in C1CCOC1,0.0001
same,photoluminescence quantum yield,in C1COCCO1,0.0001
same,photoluminescence quantum yield,in CC#N,0.0001
same,photoluminescence quantum yield,in CC(C)=O,0.01
same,photoluminescence quantum yield,in CCCO,0.03
same,photoluminescence quantum yield,in CCO,0.04
same,photoluminescence quantum yield,in CN(C)C=O,0.06
same,photoluminescence quantum yield,in CN(C)P(=O)(N(C)C)N(C)C,0.14
same,photoluminescence quantum yield,in CNC=O,0.14
same,photoluminescence quantum yield,in CO,0.0001
same,photoluminescence quantum yield,in CS(C)=O,0.17
same,photoluminescence quantum yield,in NC=O,0.07
CC(C)[Si](C#Cc1c2ccccc2c(C#C[Si](C(C)C)(C(C)C)C(C)C)c2nc3c4ccccc4c(=O)c4ccccc4c3nc12)(C(C)C)C(C)C,photoluminescence quantum yield,in ClCCl,0.75
COc1cc(N(c2ccc(C=C(C#N)C#N)c(OC)c2)c2ccc(C=C(C#N)C#N)c(OC)c2)ccc1C=C(C#N)C#N,photoluminescence quantum yield,in C1COCCO1,0.025
same,photoluminescence quantum yield,in CC#N,0.047
same,photoluminescence quantum yield,in CC(C)=O,0.074
same,photoluminescence quantum yield,in CCOC(C)=O,0.166
same,photoluminescence quantum yield,in CN(C)C=O,0.026
same,photoluminescence quantum yield,in CO,0.043
same,photoluminescence quantum yield,in Cc1ccccc1,0.018
same,photoluminescence quantum yield,in ClC(Cl)Cl,0.025
same,photoluminescence quantum yield,in ClCCl,0.028
N#CC1=C(c2ccc(-c3cccs3)s2)CC1,photoluminescence quantum yield,in CCO,0.18
CCN(CC)c1ccc(/C=C/c2cc(/C=C/c3ccc(N(CC)CC)cc3)nc(N)n2)cc1,photoluminescence quantum yield,in Cc1ccccc1,0.72
same,photoluminescence quantum yield,in ClC(Cl)Cl,0.61
CCOC(=O)CN1C(=O)C2=C(c3ccc(N4CCCCC4)cc3)N(CC(=O)OCC)C(=O)C2=C1c1ccc(C#N)cc1,photoluminescence quantum yield,in CC#N,0.01
same,photoluminescence quantum yield,in CS(C)=O,0.001
same,photoluminescence quantum yield,in Cc1ccccc1,0.16
COc1ccc(C#Cc2cc3ccccc3oc2=O)cc1,photoluminescence quantum yield,in CC#N,0.55
CNc1cccc2c1C(=O)c1ccccc1C2=O,photoluminescence quantum yield,in C1CCC2CCCCC2C1,0.014
same,photoluminescence quantum yield,in C1CCCCC1,0.0135
same,photoluminescence quantum yield,in CC1CCCCC1,0.0138
same,photoluminescence quantum yield,in CC#N,0.0026
same,photoluminescence quantum yield,in CCC(C)CC,0.0136
same,photoluminescence quantum yield,in CCCCCC,0.0136
same,photoluminescence quantum yield,in CCOC(C)=O,0.0048
CCC1=C(C)C2=C(c3cc(C(=O)Cl)cc(C4=C5C(C)=C(CC)C(C)=[N+]5[B-](F)(F)n5c(C)c(CC)c(C)c54)c3)c3c(C)c(CC)c(C)n3[B-](F)(F)[N+]2=C1C,photoluminescence quantum yield,in C1CCOC1,0.87
same,photoluminescence quantum yield,in CC#N,0.41
same,photoluminescence quantum yield,in CN(C)C=O,0.61
same,photoluminescence quantum yield,in Cc1ccccc1,0.83
same,photoluminescence quantum yield,in ClC(Cl)Cl,0.7
O=C1C2=C3c4ccsc4C=CN3C(=O)C2=C2c3ccsc3C=CN12,photoluminescence quantum yield,in CN(C)C=O,0.73
same,photoluminescence quantum yield,in ClC(Cl)Cl,0.8
CCCCCCn1c2cc(/C=C/c3cccs3)ccc2c2ccc(/C=C/c3cccs3)cc21,photoluminescence quantum yield,in ClC(Cl)Cl,0.89
Cc1c(C)c2c3ccccc3[nH]c2c2ccccc12,photoluminescence quantum yield,in ClCCl,0.156
COc1ccc(C#Cc2c3cc4ccccc4cc3c(C#Cc3ccc(OC)cc3)c3cc4sc(C)cc4cc23)cc1,photoluminescence quantum yield,in ClCCl,0.64
CCCCn1c(-c2ccc(-c3nnc(-c4ccccc4)o3)cc2)nc2c3ccccc3c3ccccc3c21,photoluminescence quantum yield,in ClCCl,0.61
Cc1cc(C2=C(c3cc(C)sc3C)P(=O)(c3ccccc3)c3ccccc32)c(C)s1 (stereo not drawn),photoluminescence quantum yield,in C1CCOC1,0.03
COc1ccc(C2=N/C(=C\c3ccccc3)C(=O)N2)cc1OC,photoluminescence quantum yield,in C1COCCO1,0.034
Cc1c(OCC(=O)O)cc2c3c([nH]c2c1C)C(=O)CCC3,photoluminescence quantum yield,in C1COCCO1,0.009
same,photoluminescence quantum yield,in CC#N,0.027
same,photoluminescence quantum yield,in CCO,0.019
same,photoluminescence quantum yield,in CS(C)=O,0.089
same,photoluminescence quantum yield,in O,0.013
same,photoluminescence quantum yield,in c1ccccc1,0.008
C#CC1CN2CCC1CC2[C@@H](O)c1ccnc2ccc(OC)cc12 (stereo partly drawn),photoluminescence quantum yield,in C1CCOC1,0.063
same,photoluminescence quantum yield,in CC#N,0.008
same,photoluminescence quantum yield,in CCCC#N,0.032
same,photoluminescence quantum yield,in Cc1ccccc1,0.023
same,photoluminescence quantum yield,in ClCCl,0.033
N#Cc1nc(N(Cc2ccccc2Cl)Cc2ccccc2Cl)c(C#N)nc1N(Cc1ccccc1Cl)Cc1ccccc1Cl,photoluminescence quantum yield,in ClC(Cl)Cl,0.78

# — the Deep4Chem optical property database
